Reference: patent publication US20130023534A1, “PYRAZOLYL-PYRIMIDINES AS KINASE INHIBITORS” (priority 2010, published 2013)

Biological target: T1, RIPK2 (Homo sapiens, UniProt O43353)
T1 construct: Full length FLAG His tagged RIPK2 was purified from a Baculovirus expression system; FLAG (N); 6His (N); made in house; host or cells: Spodoptera frugiperda (Sf9) insect cells, baculovirus
Assay: Fluorescent polarization based binding assay at the ATP binding pocket of RIPK2
Conditions: full length FLAG His tagged RIPK2; competition with fluorescently labeled ATP competitive ligand (5 nM); mean of a minimum of 2 experiments; read-out: mean pIC50 (converted)
From the text: A fluorescent polarization based binding assay was developed to quantitate interaction of novel test compounds at the ATP binding pocket of RIPK2, by competition with a fluorescently labeled ATP competitive ligand. Full length FLAG His tagged RIPK2 was purified from a Baculovirus expression system and was used at a final assay concentration of twice the KDapparent. A fluorescent labeled ligand (5-({[2-({[3-({4-[(5-hydroxy-2-methylphenyl)amino]-2-pyrimidinyl}amino)phenyl]carbonyl}amino)ethyl]amino}carbonyl)-2-(6-hydroxy-3-oxo-3H-xanthen-9-yl)benzoic acid, prepared as described below) was used at a final assay concentration of 5 nM. Both the enzyme and ligand were prepared in solutions in 50 mM HEPES pH7.5, 150 mM NaCl, 10 mM MgCl2, 1 mM DTT, and 1 mM CHAPS. Test compounds were prepared in 100% DMSO and 100 nL was dispensed to individual wells of a multiwell plate. Next, 5 ul RIPK2 was added to the test compounds at twice the final assay concentration, and incubated at room temperature for 10 minutes. […] Finally, samples were read on an instrument capable of measuring fluorescent polarization. Test compound inhibition was expressed as percent (%) inhibition of internal assay controls.
For concentration response experiments, normalized data were fit and pIC50s determined using conventional techniques. […]

T1 sequence (O43353 whole entry): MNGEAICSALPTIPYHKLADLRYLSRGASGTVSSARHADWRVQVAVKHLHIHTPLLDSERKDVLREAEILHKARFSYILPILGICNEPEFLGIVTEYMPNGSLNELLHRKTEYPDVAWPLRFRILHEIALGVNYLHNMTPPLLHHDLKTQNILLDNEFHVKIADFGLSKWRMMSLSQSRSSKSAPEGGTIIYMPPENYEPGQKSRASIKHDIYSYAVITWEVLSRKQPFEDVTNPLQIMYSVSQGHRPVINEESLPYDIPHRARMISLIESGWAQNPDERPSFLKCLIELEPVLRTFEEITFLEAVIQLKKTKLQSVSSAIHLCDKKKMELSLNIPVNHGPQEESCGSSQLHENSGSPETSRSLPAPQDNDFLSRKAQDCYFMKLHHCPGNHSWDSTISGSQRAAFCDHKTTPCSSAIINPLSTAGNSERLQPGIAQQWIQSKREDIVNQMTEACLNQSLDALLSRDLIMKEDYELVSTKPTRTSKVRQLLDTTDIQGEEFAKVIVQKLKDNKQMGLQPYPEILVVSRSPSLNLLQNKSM

COc1cc(Nc2nccc(Nc3[nH]nc(C)c3C)n2)cc(OC)c1OC [Example 1, N^4-(3,4-Dimethyl-1H-pyrazol-5-yl)-N^2-[3,4,5-tris(methyloxy)phenyl]-2,4-pyrimidinediamine]
IC50: 10 nM

COc1ccc(-n2nc(C(F)(F)F)cc2Nc2ccnc(Nc3ccc(OC)c(OC)c3)n2)cc1 [Example 21, N^2-[3,4-bis(methyloxy)phenyl]-N^4-[1-[4-(methyloxy)phenyl]-3-(trifluoromethyl)-1H-pyrazol-5-yl]-2,4-pyrimidinediamine]
IC50: 251 nM
